We go through 7 compounds from patent US5733896A, “N-(3-fluoro-2-phosphonylmethoxypropyl) derivatives of purine and pyrimidine heterocyclic bases, their preparation and use” (priority 1990, dated 1998).

Values after ≈ are worked out from the molar mass of the structure shown. Where two headings read alike, the source gives them in different places.

The test system of series [1] is murine leukemia virus. As to conditions: experimental animals; cited from earlier work.
The subject of series [2] is MSV-induced tumor. In words: Effect on the evolution of an MSV-induced tumor in newborn NMRI mice. The series is classed as in vivo. An excerpt: Effect of compounds of the general formula I on the evolution
of an MSV-induced tumor in newborn NMRI mice

The nature of series [3]: Cytotoxicity: dose decreasing the viability of MT4 cells to one half. The series is classed as cell-based. As to conditions: human, mt-4 cells. An excerpt: (§1) Effect of compounds of the general formula I on multi-
(§2) plication of HIV-1 in tissue cultures of MT-4 cells
^b dose, decreasing the viability of MT4 cells to one half;

Series [4] relates to Moloney sarcoma virus. As to conditions: experimental animals; cited from earlier work.
For series [5], the system named is HIV-1. In words: Effect on multiplication of HIV-1 in tissue cultures of MT-4 cells (suppression of cytopathogenic effect). The series is classed as cell-based.
Text: as §1, §2
^a Dose, suppressing by 50% the cytopatogenic effect of HIV1 in MT4
Background: Damage to the host cells serves as the signal in cytopathic effect assays.

Series [6] relates to HIV. As to conditions: cited from earlier work.
Series [7] concerns simian immunodefficiency virus (SIV). Particulars: experimental animals; cited from earlier work.
The subject of series [8] is retroviruses, such as HIV. As to conditions: cited from earlier work.
Setting [9] is: read-out: CD50 (dose, decreasing the viability of MT4 cells to one half).
Where [10] appears, read: Human immunodeficiency virus 1, MT4, HIV-1, MT-4 cells, read-out: ED50 (dose, suppressing by 50% the cytopatogenic effect of HIV1 in MT4 cells).

Consider `Nc1ncnc2c1ncn2CCOCP(=O)(O)O` [IX, reference compound], for which the “effect on murine leukemia virus” value in series [1] is “have proven its effect”. Moreover, the “Median day of tumor formation” value in series [2] (dose 1 mg/kg/day) is given as 6.1; in series [2] (dose 5 mg/kg/day) it was 10.1; in series [2] (dose 20 mg/kg/day), greater than 13. Moreover, the “Median survival time” value in series [2] (dose 1 mg/kg/day) came to 14.7 days; in series [2] (dose 5 mg/kg/day), 17.2 days. The CC50 in series [3] turned out to be 14.2 µg/mL (≈ 52 µM). The “effect on Moloney sarcoma virus” value in series [4] is “have proven its effect”. Moreover, the “SI (ratio CD50/ED50)” value in series [5] (HIV-1, MT-4 cells) is recorded as 7.2. Further, in series [5] (Human immunodeficiency virus 1, MT4, read-out: ED50 (dose, suppressing by 50% the cytopatogenic effect of HIV1 in MT4 cells)), the EC50 worked out at 2 µg/mL (≈ 7.32 µM). Besides, the “effect on HIV in tissue cultures” value in series [6] is listed as “have proven its effect”. In addition, the “effect on simian immunodefficiency virus (SIV)” value in series [7] is reported as “have proven its effect”.

As for `Cc1cn([C@H]2C=C[C@@H](CO)O2)c(=O)[nH]c1=O` [2',3'-dideoxy-2',3'-didehydrothymidine], in series [8], the “efficiency in the treatment of experimental animals” value is on record as “efficient in the treatment of experimental animals”.

As to `O=C(O)C1=CC(=C(c2ccc(O)c(C(=O)O)c2)c2ccc(O)c(C(=O)O)c2)C=CC1=O` [aurine-tricarboxylic acid], in series [6], the “effect on HIV in tissue cultures” value is listed as “significant effects in tissue cultures”.

On to `Nc1ccn([C@H]2CC[C@@H](CO)O2)c(=O)n1` [2',3'-dideoxycytidine], for which, in series [8], the “efficiency in the treatment of experimental animals” value is “efficient in the treatment of experimental animals”.

With `Cc1cc(-c2ccc(/N=N/c3ccc4c(S(=O)(=O)O)cc(S(=O)(=O)O)c(N)c4c3O)c(C)c2)ccc1/N=N/c1ccc2c(S(=O)(=O)O)cc(S(=O)(=O)O)c(N)c2c1O` [Evans Blue], in series [6], the “effect on HIV in tissue cultures” value is given as “significant effects in tissue cultures”.

As to `Nc1ncnc2c1ncn2CC(CF)OCP(=O)(O)O` (racemic) [Compound 1, 9-(RS)-(3-fluoro-2-phosphonylmethoxypropyl)-adenine], the “Median day of tumor formation” value is 5.8 in series [2] (dose 1 mg/kg/day), 7.5 in series [2] (dose 5 mg/kg/day) and greater than 13 in series [2] (dose 20 mg/kg/day). For the same compound, the entries for the “Median survival time” value in series [2] (dose 1 mg/kg/day) and in series [2] (dose 5 mg/kg/day) were 10.9 days and 14.4 days, respectively. Besides, the CC50 in series [3] (setting [9]) is greater than 1000 µg/mL. The “SI (ratio CD50/ED50)” value in series [5] (HIV-1, MT-4 cells) was greater than 90. The EC50 in series [5] (setting [10]) was 11.2 µg/mL (≈ 36.7 µM).

In the case of `Nc1nc2c(ncn2CC(CF)OCP(=O)(O)O)c(=O)[nH]1` (racemic) [Compound 2], the results for the “Median day of tumor formation” value in series [2] (dose 1 mg/kg/day), in series [2] (dose 5 mg/kg/day) and in series [2] (dose 20 mg/kg/day) were 5.2, 8.5 and greater than 13, respectively. In addition, the “Median survival time” value in series [2] (dose 1 mg/kg/day) was determined as 11.7 days; in series [2] (dose 5 mg/kg/day) it was 12.5 days; in series [2] (dose 20 mg/kg/day), 10 days. The CC50 in series [3] (setting [9]) came out at 233 µg/mL (≈ 725 µM). Moreover, the “SI (ratio CD50/ED50)” value in series [5] (HIV-1, MT-4 cells) was found to be 50. Besides, the EC50 in series [5] (setting [10]) came to 4.7 µg/mL (≈ 14.6 µM).
